{
  "source": "patent EP0352248A1",
  "about": "“Nucleoside derivatives” (priority 1988, dated 1990)",
  "format_in_all_cases": "cell-based",
  "key": {"HIV (HTLV-IIIB)": {"system": "HIV (HTLV-IIIB)", "experiment": "Effect on HIV in H9 cells (frequency of HIV antigen containing cells, immunofluorescence)", "conditions": "Human immunodeficiency virus 1; H9 cells exposed to HIV (HTLV-IIIB), 6-7 days; read-out: Concentration (µM) for 50 % inhibition (IC₅₀) of human immuno deficiency virus multiplication in cell culture", "description": "Test I Effect of compounds of the formula I on HIV in H9 cells\nMaterials and methods: HIV infection of H9 cells\nH9 cells, 10⁵ cells per well on a 24 well plate, suspended in 2 ml RPMI-medium containing 10 % fetal calf serum, 100 µg/ml penicillin, 10 µg/ml streptomycin sulfate and 2 µg/ml polybrene are exposed to HIV (HTLV-IIIB) and different concentrations of the test compounds. The plates are incubated at 37°C in 5 % CO₂ for 6-7 days. The contents in each well is then homogenized with a pipette and transferred to a centrifuge tube. After centrifugation for 10 min at 1500 rpm the supernatant is removed and the cell pellet is analyzed by fixing in methanol on glass plates. Human HIV positive serum diluted 1:80 or 1:160 is added and incubated for 30 min at 37°C. The plate is then washed with phosphate-buffered saline (PBS) containing Ca²⁺ and Mg²⁺. Sheep anti-human conjugate (FITC) is added and after a new incubation the plate is again washed with PBS. Contrast straining is done with Evans blue and after drying the frequency of HIV antigen containing cells is determined in a microscope."}, "H9 cells": {"system": "H9 cells", "experiment": "Cellular toxicity, inhibition of cell multiplication, H9 cells", "conditions": "conc. 200 µM, cell number after 48 h", "description": "(§1) Test II Cellular toxicity\nH9 cells, 2x10⁷ cells per plate, are incubated in RPMI-1640 medium containing 10 % fetal calf serum, 70 mg/l penicillin, 100 mg/l streptomycin and 10 mM hepes, in absence or presence of test compounds. The number of cells per plate is determined after 48 h. Cells incubated in the absence of test compounds then underwent two cell division cycles.\nF5000 cells, which are human embryo cells, 1x10⁵ cells per plate, are incubated in Eagle's minimal essential medium, supplemented with Earle's salts, non-essential amino acids, 10 % fetal calf serum, 10 mM hepes, 70 mg/l penicillin and 100 mg/l streptomycin, in absence or presence of test compounds. The number of cells per plate is determined after 48 h. Cells incubated in the absence of test compounds underwent one cell division cycle. […]"}, "F5000 cells": {"system": "F5000 cells", "experiment": "Cellular toxicity, inhibition of cell multiplication, F5000 cells", "conditions": "F5000 cells (human embryo cells), conc. 100 µM, cell number after 48 h", "description": "as §1\nF5000 cells, which are human embryo cells, 1x10⁵ cells per plate, are incubated in Eagle's minimal essential medium, supplemented with Earle's salts, non-essential amino acids, 10 % fetal calf serum, 10 mM hepes, 70 mg/l penicillin and 100 mg/l streptomycin, in absence or presence of test compounds. The number of cells per plate is determined after 48 h. Cells incubated in the absence of test compounds underwent one cell division cycle. The results are given as % inhibition of cell multiplication when the concentration of the compound is 100 µM or 250 µM."}},
  "data": [
    {"smiles": "Nc1ccn(C2CC[C@H](CO)O2)c(=O)n1", "note": "(stereo partly drawn) [VSB 815, 1-(2,3-Dideoxy-alpha,beta-L-ribofuranosyl)-cytosine]", "values": [
      {"measurement": "IC50", "setting": "HIV (HTLV-IIIB)", "result": "< 1", "unit": "µM"},
      {"measurement": "% Inhibition H9", "setting": "H9 cells", "result": "35 (200) %"},
      {"measurement": "% Inhibition F5000", "setting": "F5000 cells", "result": "55 (100) %"}
    ]}
  ]
}
